Data taken from PubChem BioAssay AID2060622 (Molecular Pharmacology Branch, DTP, NCI, 2025).

System: 242566-281-R-J2-PDC complex spheroid viability
Experiment: Anticancer human tumor 242566-281-R-J2-PDC patient-derived pancreatic carcinoma cell line growth inhibition [CLK]
Details: for IC50: curve of first compound; for viability, T/C: stronger effect = lower value
Method in brief: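 Multi-cell-type spheroids combined patient-derived tumor cells with HUVEC endothelial cells and human mesenchymal stem cells. Paired agents were dosed in half-log steps down from about clinical Cmax, or from 10 microM where Cmax was unknown.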

[1] = second compound 0.0316 µM, first compound 0.0316 µM
[2] = second compound 0.0316 µM, first compound 0.1 µM
[3] = second compound 0.0316 µM, first compound 0.316 µM
[4] = second compound 0.0316 µM, first compound 1 µM
[5] = second compound 0.0316 µM, first compound 3.16 µM
[6] = second compound 0.0316 µM, first compound 10 µM
[7] = second compound 0.1 µM, first compound 0.0316 µM
[8] = second compound 0.1 µM, first compound 0.1 µM
[9] = second compound 0.1 µM, first compound 0.316 µM
[10] = second compound 0.1 µM, first compound 1 µM
[11] = second compound 0.1 µM, first compound 3.16 µM
[12] = second compound 0.1 µM, first compound 10 µM
[13] = second compound 0.316 µM, first compound 0.0316 µM
[14] = second compound 0.316 µM, first compound 0.1 µM
[15] = second compound 0.316 µM, first compound 0.316 µM
[16] = second compound 0.316 µM, first compound 1 µM
[17] = second compound 0.316 µM, first compound 3.16 µM
[18] = second compound 0.316 µM, first compound 10 µM
[19] = second compound 1 µM, first compound 0.0316 µM
[20] = second compound 1 µM, first compound 0.1 µM
[21] = second compound 1 µM, first compound 0.316 µM
[22] = second compound 1 µM, first compound 1 µM
[23] = second compound 1 µM, first compound 3.16 µM
[24] = second compound 1 µM, first compound 10 µM
[25] = second compound 3.16 µM, first compound 0.0316 µM
[26] = second compound 3.16 µM, first compound 0.1 µM
[27] = second compound 3.16 µM, first compound 0.316 µM
[28] = second compound 3.16 µM, first compound 1 µM
[29] = second compound 3.16 µM, first compound 3.16 µM
[30] = second compound 3.16 µM, first compound 10 µM
[31] = second compound 10 µM, first compound 0.0316 µM
[32] = second compound 10 µM, first compound 0.1 µM
[33] = second compound 10 µM, first compound 0.316 µM
[34] = second compound 10 µM, first compound 1 µM
[35] = second compound 10 µM, first compound 3.16 µM
[36] = second compound 10 µM, first compound 10 µM
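Note: spheroids exposed to compounds for 7 days before readout.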
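Throughout, for viability, T/C: 100% = DMSO vehicle control wells.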

`C#Cc1c(F)ccc2cc(O)cc(-c3ncc4c(N5CC6CCC(C5)N6)nc(OCC56CCCN5CC(F)C6)nc4c3F)c12` (centres undefined) + CNC(=O)c1ccc(Nc2nc(OC3CCCC3)c3c(-c4ccc5nc(C)oc5c4)c[nH]c3n2)c(OC)c1 showed an IC50 (second compound 0.0316 µM) of 4270 nM, an IC50 (second compound 0.1 µM) of 1430 nM and an IC50 (second compound 0.316 µM) of 434 nM. The IC50 (second compound 1 µM) was < 31.6 nM, the IC50 (second compound 3.16 µM) was < 31.6 nM and the IC50 (second compound 10 µM) was < 31.6 nM. The viability, T/C [1] was 106%, the viability, T/C [2] was 89.4% and the viability, T/C [3] was 68.1%. For the same compound, the viability, T/C [4] was 60.8%, the viability, T/C [5] was 52.1% and the viability, T/C [6] was 45.6%. For the same compound, the viability, T/C [7] was 109%, the viability, T/C [8] was 92.9% and the viability, T/C [9] was 67.6%. For the same compound, the viability, T/C [10] was 55.3%, the viability, T/C [11] was 42.2% and the viability, T/C [12] was 32.9%. The viability, T/C [13] was 81.7%, the viability, T/C [14] was 66.7% and the viability, T/C [15] was 52.2%. For the same compound, the viability, T/C [16] was 39.3%, the viability, T/C [17] was 36.5% and the viability, T/C [18] was 22.3%. For the same compound, the viability, T/C [19] was 48.4%, the viability, T/C [20] was 29% and the viability, T/C [21] was 22.9%. It also gave a viability, T/C [22] of 16.5%, a viability, T/C [23] of 13.4% and a viability, T/C [24] of 15.5%. For the same compound, the viability, T/C [25] was 20.3%, the viability, T/C [26] was 17.5% and the viability, T/C [27] was 15.9%. The viability, T/C [28] was 11.8%, the viability, T/C [29] was 10.9% and the viability, T/C [30] was 7.39%. The viability, T/C [31] was 17.5%, the viability, T/C [32] was 14.5% and the viability, T/C [33] was 13.2%. It also gave a viability, T/C [34] of 10.8%, a viability, T/C [35] of 11.1% and a viability, T/C [36] of 6.78%.
For `C=C(F)C(=O)N1CCN(c2nc(OCC3CCCN3C)nc3c2CCN(c2cccc4cccc(Cl)c24)C3)CC1CC#N` (centres undefined) + CNC(=O)c1ccc(Nc2nc(OC3CCCC3)c3c(-c4ccc5nc(C)oc5c4)c[nH]c3n2)c(OC)c1, the IC50 (second compound 0.0316 µM) was 5780 nM, the IC50 (second compound 0.1 µM) was 5430 nM and the IC50 (second compound 0.316 µM) was 4990 nM. The IC50 (second compound 1 µM) was 3340 nM, the IC50 (second compound 3.16 µM) was 1130 nM and the IC50 (second compound 10 µM) was 107 nM. For the same compound, the viability, T/C [1] was 95.6%, the viability, T/C [2] was 101% and the viability, T/C [3] was 108%. The viability, T/C [4] was 101%, the viability, T/C [5] was 119% and the viability, T/C [6] was 0.23%. For the same compound, the viability, T/C [7] was 108%, the viability, T/C [8] was 78.5% and the viability, T/C [9] was 83.4%. For the same compound, the viability, T/C [10] was 105%, the viability, T/C [11] was 94.4% and the viability, T/C [12] was 0.19%. The viability, T/C [13] was 82.2%, the viability, T/C [14] was 76.3% and the viability, T/C [15] was 69.7%. It also gave a viability, T/C [16] of 88.6%, a viability, T/C [17] of 95% and a viability, T/C [18] of 0.63%. For the same compound, the viability, T/C [19] was 73.3%, the viability, T/C [20] was 64.4% and the viability, T/C [21] was 65.5%. It also gave a viability, T/C [22] of 65%, a viability, T/C [23] of 52.7% and a viability, T/C [24] of 0.17%. For the same compound, the viability, T/C [25] was 63.3%, the viability, T/C [26] was 51.1% and the viability, T/C [27] was 50.8%. The viability, T/C [28] was 53.6%, the viability, T/C [29] was 19.6% and the viability, T/C [30] was 0.18%. The viability, T/C [31] was 54.4%, the viability, T/C [32] was 45.2% and the viability, T/C [33] was 50%. The viability, T/C [34] was 43.9%, the viability, T/C [35] was 16% and the viability, T/C [36] was 0.24%.
